EPA's ToxRefDB 2

How the values were obtained:
rat [1] = settings: Combined chronic toxicity/carcinogenicity, other, Oral, Feed, dose end: 105 week
dog = settings: Subchronic oral toxicity in nonrodent, beagle, Capsule, dose end: 5 month
mouse [2] = settings: Combined chronic toxicity/carcinogenicity, b6c3f1, Oral, Feed, dose end: 2 year
mouse [3] = settings: Carcinogenicity, b6c3f1, Oral, Feed, dose end: 104 week
rabbit [4] = settings: Prenatal developmental toxicity study, new zealand white, Oral, Gavage/Intubation, dose end: 19 GD
mouse [5] = settings: Prenatal developmental toxicity study, cd1, Oral, Gavage/Intubation, dose end: 15 GD
rabbit [6] = settings: Prenatal developmental toxicity study, new zealand white, Oral, Gavage/Intubation, dose end: 19 GD; remark: listed apart in the source
rat [7] = settings: Prenatal developmental toxicity study, sprague dawley, Oral, Gavage/Intubation, dose end: 15 GD
mouse [8] = settings: Combined chronic toxicity/carcinogenicity, cd1, Oral, Feed, dose end: 24 month
rat [9] = settings: Multigenerational reproductive toxicity study, other, Oral, Feed, dose end: 2 generation
[10] = group: cholinesterase, cholinesterase / cholinesterase / cholinesterase / brain cholinesterase (che) + cholinesterase / cholinesterase / cholinesterase / …
[11] = group: systemic, systemic / hematology / erythrocyte (rbc) count differential / erythrocyte (rbc) + systemic / hematology / hematocrit (hct) / hematocrit (…
[12] = group: cholinesterase, cholinesterase / cholinesterase / cholinesterase / plasma cholinesterase (che)
[13] = group: cholinesterase, cholinesterase / cholinesterase / cholinesterase / plasma cholinesterase (che) + cholinesterase / cholinesterase / cholinesterase / brain …
[14] = group: systemic, systemic / in life observation / clinical signs / soft stools
[15] = group: cholinesterase, cholinesterase / cholinesterase / cholinesterase / erythrocyte cholinesterase (che) + cholinesterase / cholinesterase / cholinesterase / …
[16] = group: systemic, systemic / in life observation / body weight / body weight gain + systemic / pathology microscopic / kidney / regeneration
[17] = group: systemic, systemic / organ weight / lung / absolute
[18] = group: developmental, developmental / developmental malformation / bone / [other] + developmental / developmental malformation / bone / absent + developmental / …
[19] = group: maternal, reproductive / reproductive performance / postimplantation loss / postimplantation loss + systemic / in life observation / body weight / …
[20] = group: developmental, developmental / developmental malformation / bone / exencephaly + developmental / developmental malformation / bone / fused + developmental…
[21] = group: developmental, systemic / in life observation / body weight / fetal weight
[22] = group: maternal, reproductive / reproductive performance / implantations / implantations + systemic / in life observation / body weight / body weight gain + …
[23] = group: developmental, developmental / developmental malformation / general / [other]
[24] = group: maternal, systemic / in life observation / body weight / body weight + systemic / in life observation / body weight / body weight gain + systemic / in…
[25] = group: cholinesterase, cholinesterase / cholinesterase / cholinesterase / brain cholinesterase (che)
[26] = group: cholinesterase, cholinesterase / cholinesterase / cholinesterase / brain cholinesterase (che) + cholinesterase / cholinesterase / cholinesterase / plasma …
[27] = group: systemic, systemic / pathology microscopic / liver / adenoma + systemic / pathology gross / liver / mass
[28] = group: systemic, systemic / pathology microscopic / liver / adenoma + systemic / pathology microscopic / liver / adenoma/carcinoma combined + systemic / …
[29] = group: offspring, systemic / pathology microscopic / ureter / hyperplasia
[30] = group: parental, systemic / in life observation / clinical signs / motor activity

## CCCSP(=O)(OCC)SCCC [Ethoprop]
Rat [1]; [10]
  LEL: 3 mg/kg/day
  LOAEL: 3 mg/kg/day
  NEL: 0.05 mg/kg/day
  NOAEL: 0.05 mg/kg/day
Rat [1]; [11]
  LEL: 20 mg/kg/day
  LOAEL: 20 mg/kg/day
  NOAEL: 3 mg/kg/day
Rat [1]; group: systemic, systemic / organ weight / kidney / relative to body weight + systemic / organ weight / thyroid gland / relative to body weight
  NEL: 3 mg/kg/day
dog; [12]
  LEL: 0.025 mg/kg/day
  LOAEL: 0.025 mg/kg/day
dog; [13]
  NEL: 0.01 mg/kg/day
  NOAEL: 0.01 mg/kg/day
dog; [14]
  LEL: 0.025 mg/kg/day
  LOAEL: > 1 mg/kg/day
  NEL: 0.01 mg/kg/day
  NOAEL: ≥ 1 mg/kg/day
Mouse [2]; [15]
  LEL: 0.306 mg/kg/day
  LOAEL: 0.306 mg/kg/day
  NEL: 0.032 mg/kg/day
  NOAEL: 0.032 mg/kg/day
Mouse [2]; group: systemic, systemic / in life observation / body weight / body weight gain
  LOAEL: 4.44 mg/kg/day
Mouse [2]; [16]
  NEL: 0.032 mg/kg/day
  NOAEL: 0.306 mg/kg/day
Mouse [2]; group: systemic, systemic / pathology microscopic / kidney / regeneration
  LEL: 0.306 mg/kg/day
Mouse [3]; [15]
  LEL: 0.254 mg/kg/day
  LOAEL: 0.254 mg/kg/day
  NEL: 0.026 mg/kg/day
  NOAEL: 0.026 mg/kg/day
Mouse [3]; group: systemic, systemic / in life observation / body weight / body weight + systemic / in life observation / body weight / body weight gain
  LOAEL: 3.96 mg/kg/day
Mouse [3]; group: systemic, systemic / in life observation / body weight / body weight + systemic / in life observation / body weight / body weight gain + systemic / in…
  NOAEL: 0.254 mg/kg/day
Mouse [3]; [17]
  LEL: 0.032 mg/kg/day
  NEL: < 0.032 mg/kg/day

## CCOCCOCC [Ethylene glycol diethyl ether]
Rabbit [4]; [18]
  LEL: 100 mg/kg/day
  LOAEL: > 100 mg/kg/day
  NEL: 50 mg/kg/day
  NOAEL: ≥ 100 mg/kg/day
Rabbit [4]; [19]
  LEL: 100 mg/kg/day
  LOAEL: > 100 mg/kg/day
  NEL: 50 mg/kg/day
  NOAEL: ≥ 100 mg/kg/day
Mouse [5]; [20]
  LEL: 500 mg/kg/day
  LOAEL: > 1000 mg/kg/day
  NEL: 150 mg/kg/day
  NOAEL: ≥ 1000 mg/kg/day
Mouse [5]; [19]
  LEL: 1000 mg/kg/day
  LOAEL: > 1000 mg/kg/day
  NEL: 500 mg/kg/day
  NOAEL: ≥ 1000 mg/kg/day

## CN(C)c1ccc(C(=C2C=CC(=[N+](C)C)C=C2)c2ccc(N(C)C)cc2)cc1.[Cl-] [Gentian Violet]
Rabbit [6]; [21]
  LEL: 0.5 mg/kg/day
  LOAEL: > 2 mg/kg/day
  NEL: < 0.5 mg/kg/day
  NOAEL: ≥ 2 mg/kg/day
Rabbit [6]; [22]
  LEL: 0.5 mg/kg/day
  LOAEL: > 2 mg/kg/day
  NEL: < 0.5 mg/kg/day
  NOAEL: ≥ 2 mg/kg/day
Rat [7]; [23]
  LEL: 10 mg/kg/day
  LOAEL: > 10 mg/kg/day
  NEL: 5 mg/kg/day
  NOAEL: ≥ 10 mg/kg/day
Rat [7]; [24]
  LOAEL: > 10 mg/kg/day
  NEL: 2.5 mg/kg/day
  NOAEL: ≥ 10 mg/kg/day
Rat [7]; group: maternal, systemic / in life observation / body weight / body weight gain
  LEL: 5 mg/kg/day

## COc1nn(CSP(=S)(OC)OC)c(=O)s1 [Methidathion]
Mouse [8]; [25]
  LEL: 1.6 mg/kg/day
  LOAEL: 7.5 mg/kg/day
Mouse [8]; [26]
  NEL: 0.46 mg/kg/day
  NOAEL: 1.6 mg/kg/day
Mouse [8]; [27]
  LEL: 0.46 mg/kg/day
  NEL: < 0.46 mg/kg/day
Mouse [8]; [28]
  LOAEL: 7.5 mg/kg/day
  NOAEL: 1.6 mg/kg/day

## COc1cc(OC)nc(NC(=O)NS(=O)(=O)Nc2ccccc2C(=O)N(C)C)n1 [Orthosulfamuron]
Rat [9]; [29]
  LEL: 765 mg/kg/day
  LOAEL: > 765 mg/kg/day
  NEL: 205 mg/kg/day
  NOAEL: ≥ 765 mg/kg/day
Rat [9]; [30]
  LEL: 635 mg/kg/day
  LOAEL: 635 mg/kg/day
  NEL: 145 mg/kg/day
  NOAEL: 145 mg/kg/day
